Laboratory results from ChEMBL document CHEMBL2203181, “Microwave-assisted synthesis, molecular docking and antitubercular activity of 1,2,3,4-tetrahydropyrimidine-5-carbonitrile derivatives” (2012).

Legend:
Type in all cases: functional
Parameters in all cases: scale not given: the % may be the effect or the level left
[1] = tested on: Mycobacterium tuberculosis; assay: Antitubercular activity against streptomycin, isoniazid, rifampicin,ethambutol-resistant Mycobacterium tuberculosis clinical isolate assessed as reduction in RLU at 500 ug/mL after 72 hrs by luciferase reporter phage assay
[2] = tested on: Mycobacterium tuberculosis; assay: Antitubercular activity against streptomycin, isoniazid, rifampicin,ethambutol-resistant Mycobacterium tuberculosis clinical isolate assessed as reduction in RLU at 100 ug/mL after 72 hrs by luciferase reporter phage assay
[3] = tested on: Mycobacterium tuberculosis; assay: Antitubercular activity against streptomycin, isoniazid, rifampicin,ethambutol-resistant Mycobacterium tuberculosis clinical isolate assessed as reduction in RLU at 0.5 ug/mL after 72 hrs by luciferase reporter phage assay
[4] = tested on: Mycobacterium tuberculosis; assay: Antitubercular activity against streptomycin, isoniazid, rifampicin,ethambutol-resistant Mycobacterium tuberculosis clinical isolate assessed as reduction in RLU at 2 ug/mL after 72 hrs by luciferase reporter phage assay

| SMILES | Activity [1] [%] | Activity [2] [%] | Activity [3] [%] | Activity [4] [%] |
| --- | --- | --- | --- | --- |
| N#Cc1c(-c2ccc(F)cc2)[nH]c(=O)[nH]c1=O | 47.86 | 38.38 | – | – |
| N#Cc1c(-c2cccc(Cl)c2)[nH]c(=O)[nH]c1=O | 52.77 | 50.1 | – | – |
| COc1ccc(-c2[nH]c(=O)[nH]c(=O)c2C#N)cc1O | 33.49 | 25.47 | – | – |
| N#Cc1c(-c2ccc(Cl)cc2)[nH]c(=S)[nH]c1=O | 66.65 | 61.35 | – | – |
| N#Cc1c(-c2ccc(Br)cc2)[nH]c(=S)[nH]c1=O | 74.91 | 38.03 | – | – |
| NNC(=O)c1ccncc1 [ISONIAZID] | – | – | 89.6 | – |
| CO[C@H]1/C=C/O[C@@]2(C)Oc3c(C)c(O)c4c(O)c(c(/C=N/N5CCN(C)CC5)c(O)c4c3C2=O)NC(=O)/C(C)=C\C=C\[C@H](C)[C@H](O)[C@@H](C)[C@@H](O)[C@@H](C)[C@H](OC(C)=O)[C@@H]1C [RIFAMPIN] | – | – | – | 29.19 |
